Values of other authors as cited in US20080279952A1, “Controlled-Release Flupirtine Compositions, Compacts, Kits and Methods of Making and Use Thereof” (priority 2007, published 2008).

Tests used:
[1] = in vivo
[2] = in vivo; remark: listed apart in the source

Structure (SMILES)	analgesic effect as percentage of that of flupirtine [1]	portion of the administered dose metabolized in the liver [2]
CC(=O)Nc1ccc(NCc2ccc(F)cc2)nc1N [2-amino-3-acetamino-6-(4-fluor)-benzyl-amino-pyridine]	about 25%	–
CCOC(=O)Nc1ccc(NCc2ccc(F)cc2)nc1N [flupirtine]	–	Approximately 75%
